In US8124770B2, “Fluorescent cellular markers” (priority 2009, dated 2012):
Read-outs that look alike come from different tables or passages of the source.

Assays:
Type in all cases: cell-based, human
[1] = test system: caspases 3 and 7 in A431 cells; assay: Caspases 3 and 7 activation, Magic Red assay, on A431 cells; conditions: 48 hours of exposure, Cisplatin 3 uM positive control
Procedure: D. et al 2004; Blanc, C. et al 2000) making Cisplatin and Staurosporine appropriate positive controls for this assay. Cell culture media, such as RPMI 1640, modified with additional nutrients and additives such as Fetal Bovine serum and antibiotic has been added to improve the cell replication and prevent bacterial contamination was employed. […] The final volume on each plate was 9 ml of modified RPMI 1640 that contained the cell aliquot, media and drug. […] At the end of the treatment time cells were washed with PBS, detached with 5% trypsin enzyme and centrifuged. Cells were counted and aliquots were stained for an hour with cresyl violet (fluorochrome). […] Apoptotic cells (red) were distinguished from non apoptotic (non-fluorescent) using the negative and positive controls as reference.

[2] = test system: Epidermoid carcinoma A431 cells; assay: Cell cytotoxicity (growth inhibition) of BQS on A431 cells, Trypan Blue Exclusion; conditions: 5 to 100 uM, read-out: IC50 (inhibition of 50% of the cell population)
Procedure: Regarding the cytotoxicity, in order to determine the cell cytotoxicity of the BQS, duplicates cultures of 5×10^6 cells were seeded in 25 cm^2 flasks. The final volume on each plate was 9 ml of modified RPMI 1640 that contained the cell aliquot, media and BQS of present invention. Cells were then incubated for 4 hours to allow cells to adhere to the flask. Cells were cultured for 48 hours with BQS at concentration ranging from 5 to 100 uM. A negative control treated with ultra pure water (vehicle) was included in each experiment. […] At the end of the exposure period, media was removed and cultures rinsed twice with phosphate buffered saline (PBS) for removal of the compounds in solution. Cells detached with 5% trypsin enzyme, centrifuged, resuspended in fresh media and counted through a cell viability protocol, such as the Trypan Blue Exclusion analysis. Cell survival was calculated and plotted against time with the Microsoft Excel® software.

A431 tumor cells = assay: Auto-fluorescence on A431 tumor cells, inverted fluorescence microscopy; conditions: at IC50 concentration, monitored through 72 hour period, Olympus CKX41
Procedure: Regarding the autofluorencense, Ellipticine was selected as a fluorescent positive control since it is a structural analog of ABQS's. The elipticine's IC50 dose in A431 was determine by treating A431 cell cultures (in duplicates) at concentrations ranging from 0 to 50 μM. The final volume on each plate was 9 mL of modified RPMI 1640 that contained the cell aliquot, media and drug. Cells were exposed to ABQS's and Ellipticine at their IC50 concentrations, incubated and monitored through a 72 hour period by inverted microscopy. An Olympus CKX41 inverted fluorescent microscope (50 w Hg lamp), with U filter; 40× objective. Photographs were obtained at 13-17 seconds of exposure using the Q Capture Software. Auto-fluorescent cells were distinguished from non-auto-fluorescent ones using the negative and positive controls as reference.

[3] = test system: DNA and mitochondria of A431 tumor cells; assay: Intra cellular binding to organelles, wide-field fluorescence microscopy of A431 tumor cells; conditions: fluorescence microscope (FIG. 11)
[4] = Homo sapiens, A-431, 48 hours exposure

Compound | Caspases 3 and 7 activation [1] | IC50 ([2]; 48 hours exposure) | auto fluorescence in cells (A431 tumor cells) | capacity to bind to cellular organelles [3] | IC50 [2, 4]
7-Ethyl-3-nitrobenzimidazolo[3,2-a]quinolinium Chloride [NBQ38] | 22±7% | 36 µM |  |  | 
CC[n+]1c2ccccc2n2c3ccc(N)cc3ccc21.[Cl-] [ABQ38, 3-amino-7-ethylbenzimidazo[3,2-a]quinolinium chloride] | 51±1% | 32 µM | auto fluorescence | bind to DNA and mitochondria | 
Cc1ccc2sc3ccc4cc(N)c(Cl)cc4[n+]3c2c1.[Cl-] [ABQ95, 3-amino-2-chloro-10-methylbenzothiazolo[3,2-a]quinolinium chloride] | 46±6% |  |  | bind to DNA and mitochondria | 36 µM
N.N.[Cl][Pt][Cl] [Cisplatin, reference compound] | 51±13% |  |  |  | 
Cc1ccc2sc3ccc4cc([N+](=O)[O-])c(Cl)cc4[n+]3c2c1 [NBQ95, 2-Chloro-10-methyl-3-nitrobenzothiazolo[3,2-a]quinolinium chloride] |  |  |  |  | 28 µM
